The values that follow are results of earlier work, collected in patent US11938222B2, “Pregabalin sustained release composition and method for preparing the same” (priority 2018, dated 2024).

Each structure is given as a SMILES string.

The conditions of the series: gastrointestinal tract, humans.

Consider `CC(C)C[C@H](CN)CC(=O)O` [pregabalin, (S)-3-aminomethyl-5-methylhexanoic acid], for which the average absorption window is no more than 6 h.
